Data on 2 molecules can be found in patent US12012584B2 (priority 2017, dated 2024).

For data set [1] the following is noted: after 8 hours incubation at 4° C., FIG. 22.

Consider `CN(CCCC(=O)c1cccnc1)N=O` [NNK, 4-(methylnitrosamino)-1-(3-pyridyl)-1-butanone], for which the “trapping of the molecule by PEEK” value is recorded as “not trapped by the material”.
Take `CN1CCCC1c1cccnc1` (stereo not shown) [nicotine]: the “trapping of the molecule by PEEK” value is given as “not trapped by the material”. Moreover, the “amount of nicotine remaining in a PEEK plate” value (8 h) is given as “about 100%”. For the same molecule, in data set [1], the “amount of nicotine remaining in a PDMS plate” value is on record as “about 35%”.
